Source: PubChem BioAssay AID256 (DTP/NCI, 2004)
Values joined by “and” are separate entries in the source; they are usually repeats but may differ in a detail not shown here. Equal entries are not always repeated. Inconclusive results and toxic doses are left out.

Test system: CD2F1 mice, L1210 leukemia ip, survival T/C
Experiment: NCI In Vivo Anticancer Drug Screen. Data for tumor model L1210 Leukemia (intraperitoneal) in CD2F1 (CDF1) mice
Conditions: higher = longer survival
Method in brief: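 Antitumor effect is scored in animals hosting a serially transplanted tumor. Values compare compound-dosed animals against vehicle-only controls as a simple quotient.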

[1] = endpoint: mean survival time, dose: 12.5 mg/kg/injection, schedule: Q04DX003 (ip), vehicle: saline
[2] = endpoint: mean survival time, dose: 50.0 mg/kg/injection, schedule: Q01DX009 (ip), vehicle: saline
[3] = endpoint: mean survival time, dose: 100.0 mg/kg/injection, schedule: Q01DX009 (ip), vehicle: saline
[4] = endpoint: mean survival time, dose: 100.0 mg/kg/injection, schedule: Q04DX003 (ip), vehicle: saline with Tween-80
[5] = endpoint: mean survival time, dose: 200.0 mg/kg/injection, schedule: Q01DX009 (ip), vehicle: saline
[6] = endpoint: mean survival time, dose: 200.0 mg/kg/injection, schedule: Q04DX003 (ip), vehicle: saline with Tween-80
[7] = endpoint: mean survival time, dose: 25.0 mg/kg/injection, schedule: Q04DX003 (ip), vehicle: saline
[8] = endpoint: mean survival time, dose: 50.0 mg/kg/injection, schedule: Q01DX009 (ip), vehicle: saline with Tween-80
[9] = endpoint: mean survival time, dose: 100.0 mg/kg/injection, schedule: Q01DX009 (ip), vehicle: saline with Tween-80
[10] = endpoint: mean survival time, dose: 200.0 mg/kg/injection, schedule: Q01DX001 (ip), vehicle: saline with Tween-80
[11] = endpoint: mean survival time, dose: 400.0 mg/kg/injection, schedule: Q01DX001 (ip), vehicle: saline with Tween-80
[12] = endpoint: mean survival time, dose: 100.0 mg/kg/injection, schedule: Q04DX003 (ip), vehicle: saline
[13] = endpoint: mean survival time, dose: 200.0 mg/kg/injection, schedule: Q04DX003 (ip), vehicle: saline
[14] = endpoint: mean survival time, dose: 400.0 mg/kg/injection, schedule: Q04DX003 (ip), vehicle: saline
[15] = endpoint: mean survival time, dose: 400.0 mg/kg/injection, schedule: Q04DX003 (ip), vehicle: saline with Tween-80
[16] = endpoint: mean survival time, dose: 200.0 mg/kg/injection, schedule: Q01DX009 (ip), vehicle: saline with Tween-80
[17] = endpoint: mean survival time, dose: 400.0 mg/kg/injection, schedule: Q01DX009 (ip), vehicle: saline with Tween-80

## CCCC[As](=O)(O)C(C)C
endpoint: mean survival time, dose: 2.7 mg/kg/injection, schedule: Q01DX009 (ip), vehicle: saline
  T/C: 93 % of control
endpoint: mean survival time, dose: 4.1 mg/kg/injection, schedule: Q01DX009 (ip), vehicle: saline
  T/C: 102 % of control
endpoint: mean survival time, dose: 5.5 mg/kg/injection, schedule: Q04DX003 (ip), vehicle: saline
  T/C: 100 % of control
endpoint: mean survival time, dose: 6.25 mg/kg/injection, schedule: Q01DX009 (ip), vehicle: saline
  T/C: 104 % of control
endpoint: mean survival time, dose: 8.2 mg/kg/injection, schedule: Q04DX003 (ip), vehicle: saline
  T/C: 104 % of control
endpoint: mean survival time, dose: 9.3 mg/kg/injection, schedule: Q01DX009 (ip), vehicle: saline
  T/C: 100 % of control
endpoint: mean survival time, dose: 11.0 mg/kg/injection, schedule: Q04DX002 (ip), vehicle: saline
  T/C: 106 % of control
[1]
  T/C: 104 % of control
endpoint: mean survival time, dose: 14.0 mg/kg/injection, schedule: Q01DX009 (ip), vehicle: saline
  T/C: 93 % of control
endpoint: mean survival time, dose: 16.0 mg/kg/injection, schedule: Q04DX002 (ip), vehicle: saline
  T/C: 113 % of control
endpoint: mean survival time, dose: 18.0 mg/kg/injection, schedule: Q04DX003 (ip), vehicle: saline
  T/C: 100 % of control
endpoint: mean survival time, dose: 22.0 mg/kg/injection, schedule: Q01DX001 (ip), vehicle: saline
  T/C: 104 % of control
endpoint: mean survival time, dose: 25.0 mg/kg/injection, schedule: Q04DX002 (ip), vehicle: saline
  T/C: 100 % of control
endpoint: mean survival time, dose: 28.0 mg/kg/injection, schedule: Q04DX003 (ip), vehicle: saline
  T/C: 102 % of control
endpoint: mean survival time, dose: 35.0 mg/kg/injection, schedule: Q01DX001 (ip), vehicle: saline
  T/C: 102 % of control
endpoint: mean survival time, dose: 35.0 mg/kg/injection, schedule: Q04DX002 (ip), vehicle: saline
  T/C: 111 % of control
endpoint: mean survival time, dose: 50.0 mg/kg/injection, schedule: Q01DX001 (ip), vehicle: saline
  T/C: 104 % of control
endpoint: mean survival time, dose: 55.0 mg/kg/injection, schedule: Q04DX002 (ip), vehicle: saline
  T/C: 95 % of control
endpoint: mean survival time, dose: 75.0 mg/kg/injection, schedule: Q01DX001 (ip), vehicle: saline
  T/C: 111 % of control

## COc1ccc(CCN)cc1OC
[2]
  T/C: 94 % of control
[3]
  T/C: 94 % of control
[4]
  T/C: 97 % of control
[5]
  T/C: 97 % of control
[6]
  T/C: 93 % of control

## c1ccc2c[n+]3cc4ccccc4cc3cc2c1
[1]
  T/C: 104 % of control
[7]
  T/C: 97 % of control

## CC(=O)CN(C(C)=O)c1ccccc1
endpoint: mean survival time, dose: 100.0 mg/kg/injection, schedule: Q04DX002 (ip), vehicle: saline with Tween-80
  T/C: 105 % of control
endpoint: mean survival time, dose: 200.0 mg/kg/injection, schedule: Q04DX002 (ip), vehicle: saline with Tween-80
  T/C: 97 % of control
endpoint: mean survival time, dose: 400.0 mg/kg/injection, schedule: Q04DX002 (ip), vehicle: saline with Tween-80
  T/C: 109 % of control

## Cc1cc(N)c(O)cc1C
[3]
  T/C: 96 % of control

## C#CC(O)C(CC)CCCC (centres undefined)
[8]
  T/C: 99 % of control
[9]
  T/C: 94 % of control

## CCN(CC)c1ncnc2nncnc12
endpoint: mean survival time, dose: 100.0 mg/kg/injection, schedule: Q01DX001 (ip), vehicle: carboxymethylcellulose (CMC)
  T/C: 101 % of control
endpoint: mean survival time, dose: 200.0 mg/kg/injection, schedule: Q01DX001 (ip), vehicle: carboxymethylcellulose (CMC)
  T/C: 96 % of control

## NNC(=O)CCCCCCCCCCCCCCO
[10]
  T/C: 87 % of control
[11]
  T/C: 90 % of control

## CN(C)N=Nc1ccc(C(=O)O)cc1
endpoint: mean survival time, dose: 25.0 mg/kg/injection, schedule: Q01DX009 (ip), vehicle: saline
  T/C: 112 % of control
[7]
  T/C: 96 % of control
endpoint: mean survival time, dose: 45.0 mg/kg/injection, schedule: Q01DX009 (ip), vehicle: saline
  T/C: 124 % of control
[2]
  T/C: 124 % of control
endpoint: mean survival time, dose: 50.0 mg/kg/injection, schedule: Q04DX003 (ip), vehicle: saline
  T/C: 102 % of control
endpoint: mean survival time, dose: 65.0 mg/kg/injection, schedule: Q01DX009 (ip), vehicle: saline
  T/C: 154 % of control
[3]
  T/C: 172 % of control
[12]
  T/C: 109 % of control
[5]
  T/C: 90 % of control
[13]
  T/C: 123 % of control
[14]
  T/C: 103 % of control
endpoint: median survival time, dose: 25.0 mg/kg/injection, schedule: Q01DX005 (ip), vehicle: saline
  T/C: 122 % of control
endpoint: median survival time, dose: 36.0 mg/kg/injection, schedule: Q01DX005 (ip), vehicle: saline
  T/C: 116 % of control
endpoint: median survival time, dose: 50.0 mg/kg/injection, schedule: Q01DX005 (ip), vehicle: saline
  T/C: 124 % of control
endpoint: median survival time, dose: 100.0 mg/kg/injection, schedule: Q01DX005 (ip), vehicle: saline
  T/C: 151 % of control and 170 % of control
endpoint: median survival time, dose: 166.6 mg/kg/injection, schedule: Q01DX005 (ip), vehicle: saline
  T/C: 179 % of control
endpoint: median survival time, dose: 200.0 mg/kg/injection, schedule: Q01DX005 (ip), vehicle: saline
  T/C: 112 % of control

## COC(=O)c1ncccc1C(=O)O
[4]
  T/C: 94 % of control
[6]
  T/C: 86 % of control
[15]
  T/C: 86 % of control

## Cc1ccc([N+](=O)[O-])cc1NC(=O)NNC(=O)CNC(=O)c1ccc(Cl)cc1
[9]
  T/C: 88 % of control
[16]
  T/C: 94 % of control
[17]
  T/C: 107 % of control

## COc1ccc(OC)c(NC(=O)OCC(F)(F)F)c1
[8]
  T/C: 97 % of control
[16]
  T/C: 103 % of control

## O=C(NCCCl)Nc1ccccc1Cl
endpoint: mean survival time, dose: 100.0 mg/kg/injection, schedule: Q01DX001 (ip), vehicle: saline with Tween-80
  T/C: 90 % of control
[10]
  T/C: 94 % of control
[11]
  T/C: 98 % of control

## C=C1CC2(CCC23COC(=O)C3=C)OC1=O (centres undefined)
endpoint: mean survival time, dose: 0.78 mg/kg/injection, schedule: Q01DX009 (ip), vehicle: other
  T/C: 107 % of control
endpoint: mean survival time, dose: 0.78 mg/kg/injection, schedule: Q04DX002 (ip), vehicle: other
  T/C: 100 % of control
endpoint: mean survival time, dose: 0.78 mg/kg/injection, schedule: Q04DX003 (ip), vehicle: other
  T/C: 100 % of control
endpoint: mean survival time, dose: 1.56 mg/kg/injection, schedule: Q01DX009 (ip), vehicle: other
  T/C: 102 % of control
endpoint: mean survival time, dose: 1.56 mg/kg/injection, schedule: Q04DX002 (ip), vehicle: other
  T/C: 105 % of control
endpoint: mean survival time, dose: 1.56 mg/kg/injection, schedule: Q04DX003 (ip), vehicle: other
  T/C: 108 % of control
endpoint: mean survival time, dose: 3.12 mg/kg/injection, schedule: Q01DX009 (ip), vehicle: other
  T/C: 95 % of control
endpoint: mean survival time, dose: 3.12 mg/kg/injection, schedule: Q04DX002 (ip), vehicle: other
  T/C: 105 % of control
endpoint: mean survival time, dose: 3.12 mg/kg/injection, schedule: Q04DX003 (ip), vehicle: other
  T/C: 102 % of control
endpoint: mean survival time, dose: 6.25 mg/kg/injection, schedule: Q01DX009 (ip), vehicle: other
  T/C: 107 % of control
endpoint: mean survival time, dose: 6.25 mg/kg/injection, schedule: Q04DX002 (ip), vehicle: other
  T/C: 109 % of control
endpoint: mean survival time, dose: 6.25 mg/kg/injection, schedule: Q04DX003 (ip), vehicle: other
  T/C: 105 % of control
endpoint: mean survival time, dose: 12.5 mg/kg/injection, schedule: Q01DX001 (ip), vehicle: other
  T/C: 107 % of control

## c1ccc(-c2nn[nH]n2)nc1
endpoint: mean survival time, dose: 100.0 mg/kg/injection, schedule: Q01DX001 (ip), vehicle: saline
  T/C: 101 % of control
[12]
  T/C: 90 % of control and 104 % of control
endpoint: mean survival time, dose: 200.0 mg/kg/injection, schedule: Q01DX001 (ip), vehicle: saline
  T/C: 101 % of control
[13]
  T/C: 102 % of control and 104 % of control
[14]
  T/C: 94 % of control and 108 % of control

## CC(=O)Nc1ccc([N+](=O)[O-])cc1
[9]
  T/C: 96 % of control
[4]
  T/C: 90 % of control
[16]
  T/C: 101 % of control
[6]
  T/C: 98 % of control
[17]
  T/C: 111 % of control
[15]
  T/C: 98 % of control

## CC1(C)CCOC(CC(=O)OCc2ccccc2)=N1
[9]
  T/C: 96 % of control
[4]
  T/C: 93 % of control
[16]
  T/C: 96 % of control
[6]
  T/C: 92 % of control
[17]
  T/C: 95 % of control
[15]
  T/C: 88 % of control
